Measurements published in patent publication US9399145B2, “Nanoscale neuromodulating platform for retina neuron activation apparatus and method” (The Board of Trustees of the University of Illinois, priority 2005, dated 2016).

What was measured:
[1] = target: T1, α1β2γ2 GABAARs (rat α1, rat β2 and human γ2S) (UniProt P18507+P62813+P63138); assay: Two-electrode voltage clamp of α1β2γ2 GABAAR-expressing Xenopus oocytes; assay type: cell-based; conditions: for electrophysiological activity of propofol analogs (FIG. 59), words: Xenopus oocyte expression system; for potentiation of the GABA response: co-applied 3 μM GABA, MPC088 1 μM, MPD021 10 or 100 μM, MPC100 10 μM
T1 construct: expressed in transfected cells; host or cells: Xenopus laevis oocytes
From the text: Purple and gray bars indicate periods of presentation of UV light (purple) and high-intensity visible light (High-Vis) (gray), respectively. […] These amplitude determination conditions are denoted by numbers beneath the waveform in FIG. 35d.
In each of the MPC088 experiments, the cis-dominant form was generated by UV light during static bathing. […] Numbers beneath the waveform in FIG. 2(c) denote amplitude determination conditions for that experiment.
(§1) Oocytes expressing α1β2γ2 receptors (rat α1, rat β2 and human γ2S) were prepared and studied by two-electrode voltage-clamp recording^58 (holding potential: −70 mV; amplifier: GeneClamp500B; Axon Instruments, Foster City, Calif.). Unless otherwise indicated, oocytes were superfused with Ringer solution (physiological saline) at a rate of ˜1 mL/min. The experiments of FIGS. 35d-e, 36c-e and 47 involved periods of static bathing, i.e., halted superfusion. The γ2(A79C) subunit was prepared by site-directed mutagenesis. Oocyte electrophysiological experiments were carried out in room light. A UV light-emitting diode (peak wavelength: 365 nm; Hamamatsu Photonics, Japan) and a microscope illuminator (white light; Schott Fostec, Auburn, N.Y.) provided UV and visible stimulating light. As measured at the position of the oocyte, the intensity of the UV light at 365 nm was 220 μW/mm^2. At 440 nm, the nominal strength of the visible (white) light (referred to as high-intensity visible light) was 28 μW/mm^2, and that of the ambient room illumination was 0.045 μW/mm^2. In all experiments, low-intensity visible light from the microscope illuminator (3 μW/mm^2 at 440 nm) was present at all times except those involving high-intensity visible illumination. Electrophysiological data were obtained using Clampex 8.2 (Axon Instruments), analyzed using Clampfit 10.0 (Axon Instruments) and OriginPro7.5 (OriginLab, Northampton, Mass.). All statistical analysis employed a two-sample t-test.

GABAc receptors = target: T2, GABAc receptors (Homo sapiens, UniProt P24046); assay: Two-electrode voltage clamp of GABAc-expressing Xenopus oocytes; assay type: cell-based; conditions: for Hill coefficient n: Hill fit of normalized peak amplitudes; for EC50: Hill fit of peak amplitudes normalized to saturating muscimol response
T2 construct: expressed in transfected cells; host or cells: Xenopus oocytes
From the text: (§2) Muscimol-biotin was synthesized wherein biotinamidoeaproic acid N-hydroxysuccinimide ester was reacted with muscimol in N-methylpyrrolidinone in the presence of diisopropylethylamine. The product was purified to homogeneity by reversed-phase HPLC. Peaks were detected by absorbance at 210 nm (FIG. 5), collected, and lyophilized to afford muscimol-biotin. The muscimol-biotin product was judged to be 97% pure by ^IH NMR spectroscopy, with no detectable contamination of the HPLC-purified product peak by muscimol (limit of detection: ca. 1%). Muscimol-biotin was dissolved in DMSO, stored at 3° C., and diluted to desired concentrations in frog Ringer before testing on the oocyte. Electrophysiology procedures used for Xenopus oocyte preparation, including GABAc expression, followed those described previously (Qian et al., 1998). Membrane currents were recorded from GABAc-expressing oocytes by 2-electrode voltage clamp apparatus. FIGS. 6-7 show results obtained for muscimol-biotin in GABAc and GABAA expressing oocytes.
(§3) FIGS. 6 and 7 show the effects of muscimol-biotin on GABAc- and GABAA expressing Xenopus oocytes. […] Right (FIG. 7): GABAA receptors. […] (B) Responses of another oocyte to 2.5 μM muscimol-biotin alone, and to co-application of 2.5 μM muscimol-biotin and 100 μM bicuculline. (C) Family of responses to varying concentrations of muscimol-biotin and to a single, saturating concentration of muscimol (200 μM thick trace) recorded from a single oocyte. (D) Normalized peak amplitudes (mean±SEM) of responses recorded from GABAA-expressing oocytes upon the application of muscimol (open circles) and muscimol-biotin (filled circles) (n=9).

GABAA receptors = assay: Two-electrode voltage clamp of GABAA-expressing Xenopus oocytes; assay type: cell-based; conditions: for Hill coefficient n: Hill fit of normalized peak amplitudes; for EC50: Hill fit of peak amplitudes normalized to saturating muscimol response
From the text: as §2, §3

[2] = target: T3, α1β2γ2(A79C) GABAARs (γ-79C) (UniProt P18507+P62813+P63138, A118C); assay: Tethering to γ-79C GABAAR-expressing oocytes, voltage clamp; assay type: cell-based, rat, human
T3 construct: expressed in transfected cells; host or cells: Xenopus laevis oocytes
Procedure: as §1, with “μW/mm^2.” for “μW/mm^2. In all experiments, low-intensity visible light from the microscope illuminator (3 μW/mm^2 at 440 nm) was present at all times except those involving high-intensity visible illumination. Electrophysiological data were obtained using Clampex 8.2 (Axon Instruments), analyzed using Clampfit 10.0 (Axon Instruments) and OriginPro7.5 (OriginLab, Northampton, Mass.). All statistical analysis employed a two-sample t-test.”

[3] = test system: GABAARs of retinal ganglion cells; assay: Whole-cell patch clamp of isolated retinal ganglion cells; assay type: cell-based, rat; conditions: co-applied 100 μM PTX
Procedure: To test whether native neuronal GABAARs respond to MPC088, retinal ganglion cells (RGCs), a cell type known to abundantly express GABAARs (Ishida et al. (1988); Fischer et al. (1998); Wässle et al. (1998); Rotolo et al. (2003)), were examined. […] The cis-dominant preparation was obtained by pre-treating trans-dominant MPC088 with UV light for 5 min.
Inset: Aggregate data for direct activation by MPC088.
Experiments were conducted on enzymatically dissociated ganglion cells obtained from adult Sprague-Dawley rats (male and female, 6-16 weeks of age) (Charles River Laboratories, Wilmington, Mass.). Procedures for euthanasia, isolation of the retina, and the dissociation of retinal cells were as described previously (Ramsey et al. (2007) except that the period of retinal cell dissociation was shortened from 40 min to 20 min. Isolated ganglion cells were identified on the basis of their morphological appearance and the presence of a large voltage-gated sodium current. Whole-cell patch-clamp techniques similar to those described (Ramsey et al. (2007)) were used to record membrane current responses to test agents. The patch pipette with a resistance of 8-12 MΩ was pulled in two stages using a micro-electrode puller (Model PP830, Narishige Group, Tokyo, Japan). The pipette was filled with an intracellular solution containing 95 mM CsCH3SO3, 20 mM TEA-Cl, 10 mM glutamic acid, 1 mM BAPTA, 10 mM HEPES, 8 mM phosphocreatine di(tris), 1 mM MgATP and 0.2 mM Na2GTP; pH adjusted to 7.2 with CsOH. Cells were clamped at 0 mV (Axopatch 200B amplifier; Axon Instruments), and experimental runs were controlled by pCLAMP system software (Axon Instruments). Electrophysiological data were obtained in response to test compounds dissolved in physiological saline (Ringer solution) that consisted of 135 mM NaCl, 5 mM KCl, 2 mM CaCl2, 2 mM MgCl2, 10 mM glucose, and 5 mM HEPES, pH 7.4. Supplementation of aqueous test solutions with MPC088 was carried out by adding an aliquot of a stock solution containing the compound dissolved in dimethyl sulfoxide (DMSO). In all experiments, the amount of carrier DMSO present in the applied test solution was <1% (v/v). Test solutions were delivered from separate reservoirs by a multi-channel perfusion system. The same UV-LED used in the oocyte experiments was used for UV illumination of MPC088-supplemented test solutions. For preparation of cis-dominant MPC088, the test solution of initially trans-dominant compound underwent a 5-min UV illumination prior to its placement in the perfusion reservoir. All preparative procedures were performed in the dark, and the reservoirs and perfusion lines were light-protected with aluminum foil. As in the oocyte experiments, data were analyzed with Clampfit and plotted with Origin. Unless otherwise stated, numerical data from replicate experiments are presented as mean±SD, and all statistical analyses of data obtained from oocytes and from retinal ganglion cells employed a two-sample t-test.

T1 sequence (P62813 28-455): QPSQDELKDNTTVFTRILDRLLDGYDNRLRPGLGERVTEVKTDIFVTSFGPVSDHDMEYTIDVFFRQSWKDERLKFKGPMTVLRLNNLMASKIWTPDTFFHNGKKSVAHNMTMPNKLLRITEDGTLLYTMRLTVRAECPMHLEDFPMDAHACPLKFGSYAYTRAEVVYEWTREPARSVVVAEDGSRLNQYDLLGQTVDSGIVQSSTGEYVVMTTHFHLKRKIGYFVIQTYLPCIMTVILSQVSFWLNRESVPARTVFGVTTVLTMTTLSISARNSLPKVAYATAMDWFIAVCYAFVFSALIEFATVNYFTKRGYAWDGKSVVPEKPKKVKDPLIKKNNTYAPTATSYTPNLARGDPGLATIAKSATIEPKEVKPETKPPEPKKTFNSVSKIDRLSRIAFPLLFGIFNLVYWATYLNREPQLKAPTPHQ
T1 sequence (P63138 25-474 limits assumed): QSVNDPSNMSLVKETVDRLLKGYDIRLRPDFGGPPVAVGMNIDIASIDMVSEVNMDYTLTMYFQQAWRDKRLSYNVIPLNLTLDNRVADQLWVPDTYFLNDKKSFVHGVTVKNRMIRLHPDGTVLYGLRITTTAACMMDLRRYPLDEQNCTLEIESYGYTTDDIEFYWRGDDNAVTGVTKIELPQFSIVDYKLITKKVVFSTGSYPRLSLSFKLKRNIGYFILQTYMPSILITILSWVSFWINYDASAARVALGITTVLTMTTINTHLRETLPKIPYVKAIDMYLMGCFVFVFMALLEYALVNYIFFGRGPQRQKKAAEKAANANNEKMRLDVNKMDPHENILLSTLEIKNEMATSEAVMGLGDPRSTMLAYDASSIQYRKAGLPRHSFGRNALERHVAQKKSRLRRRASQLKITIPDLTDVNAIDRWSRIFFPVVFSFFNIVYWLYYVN
T1 sequence (P18507 40-467 isoform P18507-1 limits assumed): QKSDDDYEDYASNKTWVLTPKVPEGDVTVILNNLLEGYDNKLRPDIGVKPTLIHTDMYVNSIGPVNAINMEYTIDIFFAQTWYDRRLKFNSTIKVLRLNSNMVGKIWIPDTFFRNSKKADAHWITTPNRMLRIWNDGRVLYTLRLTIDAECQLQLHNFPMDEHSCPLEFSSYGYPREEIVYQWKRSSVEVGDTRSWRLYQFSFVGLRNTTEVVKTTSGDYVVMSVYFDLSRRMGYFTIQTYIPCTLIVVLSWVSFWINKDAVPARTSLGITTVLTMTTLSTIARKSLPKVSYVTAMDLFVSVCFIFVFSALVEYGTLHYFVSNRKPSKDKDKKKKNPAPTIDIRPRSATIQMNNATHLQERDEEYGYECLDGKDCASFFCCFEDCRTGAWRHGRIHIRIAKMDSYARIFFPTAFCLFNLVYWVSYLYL
T3 sequence (P62813 28-455): as the sequence (P62813 28-455) above
T3 sequence (P63138 25-474 limits assumed): as the sequence (P63138 25-474 limits assumed) above
T3 sequence (P18507 40-467 isoform P18507-1 A118C limits assumed): as the sequence (P18507 40-467 isoform P18507-1 limits assumed) above, with A79C counted along it
T2 sequence (P24046 22-479): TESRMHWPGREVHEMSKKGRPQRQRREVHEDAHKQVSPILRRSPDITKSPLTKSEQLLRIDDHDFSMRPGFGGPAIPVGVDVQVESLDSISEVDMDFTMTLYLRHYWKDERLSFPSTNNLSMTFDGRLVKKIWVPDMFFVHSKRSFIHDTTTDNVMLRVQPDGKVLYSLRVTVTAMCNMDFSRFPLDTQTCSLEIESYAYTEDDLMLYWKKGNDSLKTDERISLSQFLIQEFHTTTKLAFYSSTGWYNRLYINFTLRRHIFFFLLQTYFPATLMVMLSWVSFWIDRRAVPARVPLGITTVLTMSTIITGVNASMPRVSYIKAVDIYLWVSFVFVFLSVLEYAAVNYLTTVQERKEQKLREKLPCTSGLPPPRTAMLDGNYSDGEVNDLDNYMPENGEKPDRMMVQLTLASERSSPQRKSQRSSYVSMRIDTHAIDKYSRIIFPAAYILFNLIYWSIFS

CC(C)c1cc(CCCC(=O)NCc2ccc(/N=N/c3ccc(C(=O)O)cc3)cc2)cc(C(C)C)c1O [compound 18, (E)-4-((4-((4-(4-hydroxy-3,5-diisopropylphenyl)butanamido)methyl)phenyl)diazenyl) benzoic acid]
electrophysiological activity of propofol analogs (FIG. 59), words [1]: strong GABAAR potentiation

(E)-N-(2-Aminoethyl)-4-((4-((4-(4-hydroxy-3,5-diisopropylphenyl)butanamido)methyl)phenyl)diazenyl)benzamide [MPC088]
electrophysiological activity of propofol analogs (FIG. 59), words [1]: strong GABAAR potentiation

COC(=O)c1ccc(/N=N/c2ccc(CNC(=O)CCCc3cc(C(C)C)c(O)c(C(C)C)c3)cc2)cc1 [compound 9]
electrophysiological activity of propofol analogs (FIG. 59), words [1]: poor activity

O=C(CCCC[C@@H]1SC[C@@H]2NC(=O)N[C@@H]21)NCCCCCC(=O)NCc1cc(O)no1 [muscimol-biotin]
Hill coefficient n (GABAc receptors): 4.4
EC50 (GABAc receptors): 20 µM
Hill coefficient n (GABAA receptors): 1.4
EC50 (GABAA receptors): 385 µM

CCCC(=O)NCc1ccc(/N=N/c2ccc(C(=O)NCCN)cc2)cc1 [MPD021, (E)-N-(2-Aminoethyl)-4-((4-(butyramidomethyl)phenyl)diazenyl)benzamide]
response amplitude relative to the 3 μM GABA response ([1]; 3 μM GABA + 10 μM compound): 1.03±0.07
response amplitude relative to the 3 μM GABA response ([1]; 3 μM GABA + 100 μM compound): 1.03±0.11
potentiation of the GABA response [1]: no potentiation of the GABA response

picrotoxin [reference compound]
effect of antagonist on the MPC088-elicited response ([1]; picrotoxin 100 μg, gabazine 30 μg, bicuculline 100 μM (so in the source)): eliminated
reduction of baseline current ([2]; PTX applied to cells treated with 100 μM MPC100 and washed): 85±7%
reduction of the response to 2 μM GABA+10 μM trans-dominant MPC088 [3]: 94±1%
reduction of the response to 60 μM trans-dominant MPC088 alone [3]: 95±2%

CC(C)c1cc(CCCC(=O)Oc2ccc(/N=N/c3ccccc3)cc2)cc(C(C)C)c1O [compound 14, (E)-4-(phenyldiazenyl) phenyl 4-(4-hydroxy-3,5-diisopropylphenyl) butanoate]
electrophysiological activity of propofol analogs (FIG. 59), words [1]: active

methyl-(PEG)11-maleimide [reference compound]
persistent increase in the 3 μM GABA response ([2]; 1 mM, 10-min treatment): 71±25%

CC(C)c1cc(CCCC(=O)NCc2ccc(/N=N/c3ccc(C(=O)NCCNC(=O)CCOCCOCCOCCOCCOCCOCCOCCOCCOCCOCCOCCOCCOCCOCCOCCOCCOCCOCCOCCOCCOCCOCCOCCOCCNC(=O)CCN4C(=O)C=CC4=O)cc3)cc2)cc(C(C)C)c1O [MPC100, (E)-N-(82-(2,5-Dioxo-2,5-dihydro-1H-pyrrol-1-yl)-4,80-dioxo-7,10,13,16,19,22,25,28,31,34,37,40,43,46,49,52,55,58,61,64,67,70,73,76-tetracosaoxa-3,79-diazadooctacontyl)-4-((4-((4-(4-hydroxy-3,5-diisopropylphenyl)butanamido)methyl)phenyl)diazenyl)benzamide]
direct activation of wildtype receptors ([1]; 10 μM, no GABA): negligible
potentiation of the GABA response [1]: smaller than that produced by equimolar trans-dominant MPC088
response to GABA after MPC100 treatment and Ringer perfusion ([1]; wildtype receptors, 100 μM, 7 min): not significantly enhanced
ratio of 3 μM GABA response amplitudes post- vs. pre-MPC100 treatment ([2]; 100 μM MPC100, 10 min, after methyl-(PEG)11-maleimide pre-treatment): 1.1±0.1
potentiation after incubation and washout ([2]; 100 μM, ~5-7 min, then Ringer superfusion): persistent potentiation of the GABA response
effect of tethering on potentiating action of diazepam ([2]; data not shown): eliminated the potentiating action of diazepam

NCc1cc(=O)[nH]o1 [muscimol, reference compound]
Hill coefficient n (GABAc receptors): 1.2
EC50 (GABAc receptors): 2 µM
Hill coefficient n (GABAA receptors): 0.74
EC50 (GABAA receptors): 4.8 µM

CC(C)c1cc(CCCC(=O)O)cc(C(C)C)c1O [compound 8]
electrophysiological activity of propofol analogs (FIG. 59), words [1]: poor activity
